The IC50 is the midpoint of a concentration-inhibition curve.

A value given as a limit tells only on which side of the number the result lay.

The target of assay [1] is T1, BTK (Homo sapiens, UniProt Q06187).
T1 construct: purchased Upstate 14-552
The assay can be described thus: In vitro BTK kinase assay: BTK-POLYGAT-LS assay. Type of assay: biochemical. The following applies: 10 uM ATP, read-out: IC50 (10 uMATP).

Assay [2] addresses T2, pBTK (Homo sapiens, UniProt Q06187).
T2 construct: Heparinized venous blood was purchased from Bioreclamation, Inc. or SeraCare Life Sciences; tissue Bioreclamation, Inc. or SeraCare Life Sciences; host or cells: heparinized venous whole blood
The assay can be described thus: In vitro PD assay in whole blood (pBTK assay). Type of assay: cell-based. Particulars: 30 min at 37° C. The procedure: Heparinized venous blood was purchased from Bioreclamation, Inc. or SeraCare Life Sciences and shipped overnight. Whole blood was aliquoted into 96-well plate and “spiked” with serial dilutions of test compound in DMSO or with DMSO without drug. The final concentration of DMSO in all wells was 0.1%. The plate was incubated at 37° C. for 30 min. Lysis buffer containing protease and phosphatase inhibitors was added to the drug-containing samples and one of the DMSO-only samples (+PPi, high control), while lysis buffer containing protease inhibitors was added to the other DMSO-only samples (−PPi, low control). All of the lysed whole blood samples were subjected to the total BTK capture and phosphotyrosine detection method described in Example 30. ECL values were graphed in Prism and a best-fit curve with restrictions on the maximum and minimum defined by the +PPi high and −PPi low controls was used to estimate the test compound concentration that results in 50% inhibition of ECL signal by interpolation.
In some instances where a compound tested has activity “D”, other structurally similar compounds beyond the measurable limits of the assay are not included in Table 2.

T2 sequence (Q06187 whole entry): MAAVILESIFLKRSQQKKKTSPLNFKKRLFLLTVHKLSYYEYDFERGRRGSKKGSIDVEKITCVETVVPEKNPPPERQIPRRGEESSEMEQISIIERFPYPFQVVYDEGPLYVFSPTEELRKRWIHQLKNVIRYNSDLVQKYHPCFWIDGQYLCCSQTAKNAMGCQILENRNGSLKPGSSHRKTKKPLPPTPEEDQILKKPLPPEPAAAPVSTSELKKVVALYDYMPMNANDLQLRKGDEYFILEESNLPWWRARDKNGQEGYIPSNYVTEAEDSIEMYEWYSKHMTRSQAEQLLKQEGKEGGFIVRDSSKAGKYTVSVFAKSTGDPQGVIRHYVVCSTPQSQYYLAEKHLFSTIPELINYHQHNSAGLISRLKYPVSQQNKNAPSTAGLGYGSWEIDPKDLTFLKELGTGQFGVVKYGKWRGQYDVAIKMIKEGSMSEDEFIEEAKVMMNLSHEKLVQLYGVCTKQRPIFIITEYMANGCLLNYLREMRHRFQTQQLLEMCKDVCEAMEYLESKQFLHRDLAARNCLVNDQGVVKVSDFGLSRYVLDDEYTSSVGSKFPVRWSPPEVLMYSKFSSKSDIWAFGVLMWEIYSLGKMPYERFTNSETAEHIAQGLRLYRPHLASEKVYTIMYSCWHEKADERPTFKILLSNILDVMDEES
T1 sequence (Q06187 whole entry): as above

As to `Cc1cc(-c2ncnc3cc(-c4cnn(C)c4)[nH]c23)ccc1CNC(=O)c1cc2c(s1)CCOC2` [Example I-42, N-(2-methyl-4-(6-(1-methyl-1H-pyrazol-4-yl)-5H-pyrrolo[3,2-d]pyrimidin-4-yl)benzyl)-6,7-dihydro-4H-thieno[3,2-c]pyran-2-carboxamide], the IC50 in assay [1] is less than 10 nM; in assay [2], less than 500 nM.
With `Cc1cc(-c2ncnc3cc(-c4cnn(C)c4)[nH]c23)ccc1CNC(=O)N1CC(OC(C)C)C1` [Example I-43, 3-isopropoxy-N-(2-methyl-4-(6-(1-methyl-1H-pyrazol-4-yl)-5H-pyrrolo[3,2-d]pyrimidin-4-yl)benzyl)azetidine-1-carboxamide], the values for the IC50 in assay [1] and in assay [2] were less than 10 nM and 500 to 1500 nM, respectively.
On the same counts, the results for `Cc1cc(-c2ncnc3cc(-c4cnn(C)c4)[nH]c23)ccc1C(CO)NC(=O)c1cnc(C(C)(C)C)s1` (stereo not shown) [Example I-44, 2-(tert-butyl)-N-(2-hydroxy-1-(2-methyl-4-(6-(1-methyl-1H-pyrazol-4-yl)-5H-pyrrolo[3,2-d]pyrimidin-4-yl)phenyl)ethyl)thiazole-5-carboxamide] are less than 10 nM and 500 to 1500 nM.
Turning to `Cc1cc(-c2ncnc3cc(-c4cnn(C)c4)[nH]c23)ccc1C(CO)NC(=O)c1cc2c(s1)CCOC2` (stereo not shown) [Example I-45, N-(2-hydroxy-1-(2-methyl-4-(6-(1-methyl-1H-pyrazol-4-yl)-5H-pyrrolo[3,2-d]pyrimidin-4-yl)phenyl)ethyl)-6,7-dihydro-4H-thieno[3,2-c]pyran-2-carboxamide], the concentration for half-maximal inhibition (IC50) in assay [1] lay in the range of 10 to 99 nM; in assay [2], 1500 to 10000 nM.
As for `Cc1cc(-c2ncnc3cc(-c4cnn(C)c4)[nH]c23)ccc1C(C)NC(=O)c1cnc(C(C)(C)C)s1` (stereo not shown) [Example I-46, 2-(tert-butyl)-N-(1-(2-methyl-4-(6-(1-methyl-1H-pyrazol-4-yl)-5H-pyrrolo[3,2-d]pyrimidin-4-yl)phenyl)ethyl)thiazole-5-carboxamide], the values for the IC50 in assay [1] and in assay [2] were less than 10 nM and less than 500 nM, respectively.
Take `Cc1cc(-c2ncnc3nc(N4CCN(C)CC4)[nH]c23)ccc1CNC(=O)c1cnc(C(C)(C)C)s1` [Example I-47, 2-(tert-butyl)-N-(2-methyl-4-(8-(4-methylpiperazin-1-yl)-7H-purin-6-yl)benzyl)thiazole-5-carboxamide]: the figures for the IC50 in assay [1] and in assay [2] were less than 10 nM and less than 500 nM, respectively.
Take `Cc1cc(-c2ncnc3nc(N4CCOCC4)[nH]c23)ccc1CNC(=O)c1cnc(C(C)(C)C)s1` [Example I-48, 2-(tert-butyl)-N-(2-methyl-4-(8-morpholino-7H-purin-6-yl)benzyl)thiazole-5-carboxamide]: the IC50 in assay [1] was less than 10 nM; in assay [2], less than 500 nM.
On the same counts, the results for `Cc1cc(-c2ncnc3nc(N4CCC(N(C)C)CC4)[nH]c23)ccc1CNC(=O)c1cnc(C(C)(C)C)s1` [Example I-49, 2-(tert-butyl)-N-(4-(8-(4-(dimethylamino)piperidin-1-yl)-7H-purin-6-yl)-2-methylbenzyl)thiazole-5-carboxamide] are less than 10 nM and 500 to 1500 nM.
For the molecule `Cc1cc(-c2ncnc3nc(N4CCC(C(=O)O)CC4)[nH]c23)ccc1CNC(=O)c1cnc(C(C)(C)C)s1` [Example I-52, 1-(6-(4-((2-(tert-butyl)thiazole-5-carboxamido)methyl)-3-methylphenyl)-7H-purin-8-yl)piperidine-4-carboxylic acid], the IC50 in assay [1] was less than 10 nM; in assay [2] it was less than 500 nM.
Turning to `Cc1cc(-c2ncnc3[nH]ccc23)ccc1C(C)NC(=O)c1cc2c(s1)CCCC2` (stereo not shown) [Example I-78, N-(1-(2-methyl-4-(7H-pyrrolo[2,3-d]pyrimidin-4-yl)phenyl)ethyl)-4,5,6,7-tetrahydrobenzo[b]thiophene-2-carboxamide], the IC50 in assay [1] was less than 10 nM; in assay [2], 1500 to 10000 nM.
For the molecule `Cc1cc(-c2ncnc3[nH]ncc23)ccc1CNC(=O)c1cc2c(s1)CCCC2` [Example I-85, N-(2-methyl-4-(1H-pyrazolo[3,4-d]pyrimidin-4-yl)benzyl)-4,5,6,7-tetrahydrobenzo[b]thiophene-2-carboxamide], the figures for the IC50 in assay [1] and in assay [2] were less than 10 nM and 1500 to 10000 nM, respectively.
For the molecule `O=C(N[C@H]1CCCc2cc(-c3ncnc4[nH]ncc34)ccc21)c1cc2c(s1)CCCC2` [Example I-87, (S)—N-(6-(1H-Pyrazolo[3,4-d]pyrimidin-4-yl)-1,2,3,4-tetrahydronaphthalen-1-yl)-4,5,6,7-tetrahydrobenzo[b]thiophene-2-carboxamide], the IC50 was less than 10 nM in assay [1] and 1500 to 10000 nM in assay [2].
Consider `O=C(N[C@H]1CCCc2cc(-c3ncnc4[nH]ccc34)ccc21)c1cc2c(s1)CCCC2` [Example I-89, (S)—N-(6-(7H-Pyrrolo[2,3-d]pyrimidin-4-yl)-1,2,3,4-tetrahydronaphthalen-1-yl)-4,5,6,7-tetrahydrobenzo[b]thiophene-2-carboxamide], for which the IC50 in assay [1] is less than 10 nM; in assay [2] it was 1500 to 10000 nM.
In the case of `CC(C)(C)c1csc(C(=O)NC2CCCc3cc(-c4ncnc5[nH]ncc45)ccc32)n1` (stereo not shown) [Example I-98, N-(6-(1H-pyrazolo[3,4-d]pyrimidin-4-yl)-1,2,3,4-tetrahydronaphthalen-1-yl)-4-(tert-butyl) thiazole-2-carboxamide], the values for the half-inhibitory concentration (IC50) in assay [1] and in assay [2] were less than 10 nM and more than 10000 nM, respectively.
On the same counts, the results for `Cc1cc(-c2ncnc3[nH]c(-c4cnn(C)c4)cc23)ccc1C(C)NC(=O)c1cnc(C(C)(C)C)s1` (stereo not shown) [Example I-112, 2-(tert-butyl)-N-(1-(2-methyl-4-(6-(1-methyl-1H-pyrazol-4-yl)-7H-pyrrolo[2,3-d]pyrimidin-4-yl)phenyl)ethyl)thiazole-5-carboxamide] are less than 10 nM and less than 500 nM.
On the same counts, the results for `Cc1cc(-c2ncnc3[nH]c(-c4cnn(C)c4)cc23)ccc1C(C)NC(=O)c1cc2c(s1)CCOC2` (stereo not shown) [Example I-113, N-(1-(2-methyl-4-(6-(1-methyl-1H-pyrazol-4-yl)-7H-pyrrolo[2,3-d]pyrimidin-4-yl)phenyl)ethyl)-6,7-dihydro-4H-thieno[3,2-c]pyran-2-carboxamide] are less than 10 nM and 1500 to 10000 nM.
On the same counts, the results for `Cc1cc(-c2ncnc3cc[nH]c23)ccc1CNC(=O)c1cnc(C(C)(C)C)s1` [Example I-115, 2-(tert-butyl)-N-(2-methyl-4-(5H-pyrrolo[3,2-d]pyrimidin-4-yl)benzyl)thiazole-5-carboxamide] are less than 10 nM and 500 to 1500 nM.
For `Cc1cc(-c2ncnc3cc[nH]c23)ccc1CNC(=O)c1cc2c(s1)CCCC2` [Example I-116, N-(2-methyl-4-(5H-pyrrolo[3,2-d]pyrimidin-4-yl)benzyl)-4,5,6,7-tetrahydrobenzo[b]thiophene-2-carboxamide], the IC50 is less than 10 nM in assay [1] and 1500 to 10000 nM in assay [2].
For `Cc1cc(-c2ncnc3[nH]ncc23)ccc1CNC(=O)c1nc2c(s1)CCCC2` [Example I-119, 4,5,6,7-Tetrahydro-benzothiazole-2-carboxylic acid 2-methyl-4-(1H-pyrazolo[3,4-d]pyrimidin-4-yl)-benzylamide], the IC50 in assay [1] was less than 10 nM; in assay [2], 1500 to 10000 nM.
In the case of `O=C(NCc1ccc(-c2ncnc3[nH]ccc23)cc1C(F)(F)F)c1nc2c(s1)CCCC2` [Example I-122, N-(4-(7H-pyrrolo[2,3-d]pyrimidin-4-yl)-2-(trifluoromethyl)benzyl)-4,5,6,7-tetrahydrobenzo[d]thiazole-2-carboxamide], the IC50 in assay [1] is 10 to 99 nM; in assay [2], 1500 to 10000 nM.

(Values after patent US10280169B2, “Biaryl bruton's tyrosine kinase inhibitors” (BIOGEN MA INC., priority 2013, dated 2019).)
